Results reported in publication PMC5218480 (PLoS ONE, 2017).

System: MV-4-11 cells
Experiment: Gene expression microarray analysis (Affymetrix PrimeView) and GSEA
Format: cell-based, human
Set-up: RFU PODN (11730768_x_at) / Fold change /veh PODN (11730768_x_at) / RFU LINC00158 (11744669_a_at) / Fold change /veh LINC00158 (11744669_a_at) / RFU DUSP10 (11751237_a_at) / Fold change /veh DUSP10 (11751237_a_at) / RFU ID3 (11757404_x_at) / Fold change /veh ID3 (11757404_x_at) / RFU PLEKHG5 (11737974_s_at) / Fold change /veh PLEKHG5 (11737974_s_at) / RFU LRRC4B (11730491_at) / Fold change /veh LRRC4B (11730491_at) / RFU GIMAP4 (11747438_a_at) / Fold change /veh GIMAP4 (11747438_a_at) / RFU KRT8 (11758183_x_at) / Fold change /veh KRT8 (11758183_x_at) / RFU CNN1 (11734310_a_at) / Fold change /veh CNN1 (11734310_a_at) / RFU VPS37D (11726825_at) / Fold change /veh VPS37D (11726825_at) / RFU C10orf10 (11716522_x_at) / Fold change /veh C10orf10 (11716522_x_at) / RFU KIR2DL2 /// KIR2DL4 /// KIR2DL5A /// KIR2DL5B /// KIR2DS1 /// KIR2DS2 /// KIR2DS3 /// KIR2DS4 /// KIR3DL3 /// KIR3DL3 /// KIR3DS1 (11738374_at) / Fold change /veh KIR2DL2 /// KIR2DL4 /// KIR2DL5A /// KIR2DL5B /// KIR2DS1 /// KIR2DS2 /// KIR2DS3 /// KIR2DS4 /// KIR3DL3 /// KIR3DL3 /// KIR3DS1 (11738374_at) / RFU C1QL1 (11718748_at) / Fold change /veh C1QL1 (11718748_at) / RFU TMPRSS4 (11747572_a_at) / Fold change /veh TMPRSS4 (11747572_a_at) / RFU HAMP (11756126_x_at) / Fold change /veh HAMP (11756126_x_at) / RFU RNFT2 (11725882_a_at) / Fold change /veh RNFT2 (11725882_a_at) / RFU NR4A2 (11747474_a_at) / Fold change /veh NR4A2 (11747474_a_at) / RFU ABCC12 (11746883_a_at) / Fold change /veh ABCC12 (11746883_a_at) / RFU TMEM136 (11760407_x_at) / Fold change /veh TMEM136 (11760407_x_at) / RFU CLDN22 /// WWC2 (11732394_at) / Fold change /veh CLDN22 /// WWC2 (11732394_at) / RFU HLA-DPB1 (11760878_x_at) / Fold change /veh HLA-DPB1 (11760878_x_at) / RFU SPINT1 (11716480_a_at) / Fold change /veh SPINT1 (11716480_a_at) / RFU GAP43 (11754022_s_at) / Fold change /veh GAP43 (11754022_s_at) / RFU A4GNT (11735810_at) / Fold change /veh A4GNT (11735810_at) / RFU PRB3 (11715151_x_at) / Fold change /veh PRB3 (11715151_x_at) / RFU TUBB4B (11761932_at) / Fold change /veh TUBB4B (11761932_at) / RFU CAPN14 (11732068_a_at) / Fold change /veh CAPN14 (11732068_a_at) / RFU TMCC2 (11721928_a_at) / Fold change /veh TMCC2 (11721928_a_at) / RFU IRGQ (11745062_a_at) / Fold change /veh IRGQ (11745062_a_at) / RFU FAM174B (11720279_a_at) / Fold change /veh FAM174B (11720279_a_at) / RFU TMPRSS4 (11748680_a_at) / Fold change /veh TMPRSS4 (11748680_a_at) / RFU FAM212B (11763350_a_at) / Fold change /veh FAM212B (11763350_a_at) / RFU PLEKHG5 (11743358_a_at) / Fold change /veh PLEKHG5 (11743358_a_at) / RFU ZSCAN30 (11745921_a_at) / Fold change /veh ZSCAN30 (11745921_a_at) / RFU CMKLR1 (11741424_a_at) / Fold change /veh CMKLR1 (11741424_a_at) / RFU LOC101060620 /// MAPK8IP1 (11723275_at) / Fold change /veh LOC101060620 /// MAPK8IP1 (11723275_at) / RFU SPTSSB (11747773_x_at) / Fold change /veh SPTSSB (11747773_x_at) / RFU PRSS12 (11739890_at) / Fold change /veh PRSS12 (11739890_at) / RFU BIN1 (11741810_x_at) / Fold change /veh BIN1 (11741810_x_at) / RFU WNT11 (11732464_a_at) / Fold change /veh WNT11 (11732464_a_at) / RFU C10orf10 (11716521_a_at) / Fold change /veh C10orf10 (11716521_a_at) / RFU C5orf56 (11738089_at) / Fold change /veh C5orf56 (11738089_at) / RFU CYB561 (11721691_x_at) / Fold change /veh CYB561 (11721691_x_at) / RFU ANKRD19P (11752326_a_at) / Fold change /veh ANKRD19P (11752326_a_at) / RFU OR2T12 /// OR2T33 /// OR2T8 (11738714_s_at) / Fold change /veh OR2T12 /// OR2T33 /// OR2T8 (11738714_s_at) / RFU VCAN (11748164_a_at) / Fold change /veh VCAN (11748164_a_at) / RFU JSRP1 (11732532_at) / Fold change /veh JSRP1 (11732532_at) / RFU KRTAP10-11 (11738290_x_at) / Fold change /veh KRTAP10-11 (11738290_x_at) / RFU MYO3A (11730013_a_at) / Fold change /veh MYO3A (11730013_a_at) / RFU EBF3 (11725865_a_at) / Fold change /veh EBF3 (11725865_a_at) / RFU CAMK2N1 (11719241_x_at) / Fold change /veh CAMK2N1 (11719241_x_at) / RFU C5orf56 (11738088_a_at) / Fold change /veh C5orf56 (11738088_a_at) / RFU OLFML3 (11715873_a_at) / Fold change /veh OLFML3 (11715873_a_at) / RFU LOC100653217 /// NTM (11731650_a_at) / Fold change /veh LOC100653217 /// NTM (11731650_a_at) / RFU MAPK11 (11762145_a_at) / Fold change /veh MAPK11 (11762145_a_at) / RFU FIZ1 (11724087_x_at) / Fold change /veh FIZ1 (11724087_x_at) / RFU OASL (11726364_x_at) / Fold change /veh OASL (11726364_x_at) / RFU SOX15 (11748057_x_at) / Fold change /veh SOX15 (11748057_x_at) / RFU CD79A (11719716_a_at) / Fold change /veh CD79A (11719716_a_at) / RFU HIST1H1D (11736915_at) / Fold change /veh HIST1H1D (11736915_at) / RFU CASKIN2 (11723855_a_at) / Fold change /veh CASKIN2 (11723855_a_at) / RFU LOC730098 (11760151_x_at) / Fold change /veh LOC730098 (11760151_x_at) / RFU OR4N2 (11742367_at) / Fold change /veh OR4N2 (11742367_at) / RFU PRRT2 (11749266_a_at) / Fold change /veh PRRT2 (11749266_a_at) / RFU SNX32 (11753110_a_at) / Fold change /veh SNX32 (11753110_a_at) / RFU CDHR5 (11726645_a_at) / Fold change /veh CDHR5 (11726645_a_at) / RFU RCAN1 (11760418_a_at) / Fold change /veh RCAN1 (11760418_a_at) / RFU FAM167A (11723789_a_at) / Fold change /veh FAM167A (11723789_a_at) / RFU FAM26E (11764081_at) / Fold change /veh FAM26E (11764081_at) / RFU ISYNA1 (11749810_s_at) / Fold change /veh ISYNA1 (11749810_s_at) / RFU ACY1 (11761880_at) / Fold change /veh ACY1 (11761880_at) / RFU 11764098_at / Fold change /veh 11764098_at / RFU SAMD14 (11745864_x_at) / Fold change /veh SAMD14 (11745864_x_at) / RFU NPB (11741838_a_at) / Fold change /veh NPB (11741838_a_at) / RFU TMPRSS6 (11731388_a_at) / Fold change /veh TMPRSS6 (11731388_a_at) / RFU KRTAP10-2 (11738614_at) / Fold change /veh KRTAP10-2 (11738614_at) / RFU ARHGAP8 /// PRR5-ARHGAP8 (11727945_x_at) / Fold change /veh ARHGAP8 /// PRR5-ARHGAP8 (11727945_x_at) / RFU KRTAP5-7 /// NADSYN1 (11734609_at) / Fold change /veh KRTAP5-7 /// NADSYN1 (11734609_at) / RFU RASL12 (11751679_a_at) / Fold change /veh RASL12 (11751679_a_at) / RFU CDKN2B (11736163_a_at) / Fold change /veh CDKN2B (11736163_a_at) / RFU PRF1 (11729649_at) / Fold change /veh PRF1 (11729649_at) / RFU, ZNF638 /// ZNF638-IT1 / Fold change vs veh, ZNF638 /// ZNF638-IT1 / RFU, PANK3 / Fold change vs veh, PANK3 / RFU, SH3YL1 / Fold change vs veh, SH3YL1 / RFU, ZEB2 / Fold change vs veh, ZEB2 / RFU, NRIP1 / Fold change vs veh, NRIP1 / RFU, PTTG1IP / Fold change vs veh, PTTG1IP / RFU, CAPN2 / Fold change vs veh, CAPN2 / RFU, MED14 / Fold change vs veh, MED14 / RFU, SNORA58 / Fold change vs veh, SNORA58 / RFU, C1orf63 / Fold change vs veh, C1orf63 / RFU, LRRFIP1 / Fold change vs veh, LRRFIP1 / RFU, NDUFAF7 / Fold change vs veh, NDUFAF7 / RFU, SLC12A2 / Fold change vs veh, SLC12A2 / RFU, IBTK / Fold change vs veh, IBTK / RFU, ESF1 / Fold change vs veh, ESF1 / Fold change vs veh, TMEM50B / RFU, TAOK1 / Fold change vs veh, TAOK1 / RFU, ACBD3 / Fold change vs veh, ACBD3 / RFU, TMA16 / Fold change vs veh, TMA16 / RFU, RWDD3 / Fold change vs veh, RWDD3 / RFU, BCAT1 / Fold change vs veh, BCAT1 / RFU, EDEM3 / Fold change vs veh, EDEM3 / RFU, TMEM33 / Fold change vs veh, TMEM33 / RFU, WDR75 / Fold change vs veh, WDR75 / RFU, AHCTF1 / Fold change vs veh, AHCTF1 / RFU, TFRC / Fold change vs veh, TFRC / RFU, ZDHHC17 / Fold change vs veh, ZDHHC17 / RFU, NOM1 / Fold change vs veh, NOM1 / RFU, ARL8B / Fold change vs veh, ARL8B / RFU, ZBTB11 / Fold change vs veh, ZBTB11 / RFU, TAMM41 / Fold change vs veh, TAMM41 / RFU, KIAA1704 /// LOC100996395 / Fold change vs veh, KIAA1704 /// LOC100996395 / RFU, ING1 / Fold change vs veh, ING1 / RFU, TRMT61B / Fold change vs veh, TRMT61B / RFU, FUBP3 / Fold change vs veh, FUBP3 / RFU, TP53 / Fold change vs veh, TP53 / RFU, TNKS2 / Fold change vs veh, TNKS2 / RFU, ZFP14 / Fold change vs veh, ZFP14 / RFU, ACTR2 / Fold change vs veh, ACTR2 / RFU, PPP3R1 / Fold change vs veh, PPP3R1 / RFU, PIK3R1 / Fold change vs veh, PIK3R1 / RFU, HNRNPA1 / Fold change vs veh, HNRNPA1 / RFU, RNF170 / Fold change vs veh, RNF170 / RFU, ZNF28 / Fold change vs veh, ZNF28 / RFU, RNGTT / Fold change vs veh, RNGTT / RFU, OGT / Fold change vs veh, OGT / RFU, BRD1 / Fold change vs veh, BRD1 / RFU, MARS / Fold change vs veh, MARS / RFU, ZNF655 / Fold change vs veh, ZNF655 / RFU, FAHD1 / Fold change vs veh, FAHD1 / RFU, BDP1 / Fold change vs veh, BDP1 / RFU, LRRCC1 / Fold change vs veh, LRRCC1 / RFU, ARID1A / Fold change vs veh, ARID1A / RFU, ZNF146 / Fold change vs veh, ZNF146 / RFU, ZNF330 / Fold change vs veh, ZNF330 / RFU, GPN3 / Fold change vs veh, GPN3 / RFU, C9orf123 / Fold change vs veh, C9orf123 / RFU, N4BP2L2 / Fold change vs veh, N4BP2L2 / RFU, ARFIP1 / Fold change vs veh, ARFIP1 / RFU, FAM179B / Fold change vs veh, FAM179B / RFU, BCL10 / Fold change vs veh, BCL10 / RFU, UHRF1BP1L / Fold change vs veh, UHRF1BP1L / RFU, BET1 / Fold change vs veh, BET1 / RFU, CNOT2 / Fold change vs veh, CNOT2 / RFU, ZNF268 / Fold change vs veh, ZNF268 / Fold change vs veh, ZNF507 / RFU, DGCR2 / Fold change vs veh, DGCR2 / RFU, WDSUB1 / Fold change vs veh, WDSUB1 / Fold change vs veh, HSP90B1 /// MIR3652 / RFU, ADSS / Fold change vs veh, ADSS / RFU, GK / Fold change vs veh, GK / RFU, ZNF148 / Fold change vs veh, ZNF148 / RFU, TAF9 / Fold change vs veh, TAF9 / RFU, SLC1A5 / Fold change vs veh, SLC1A5 / RFU, SLMO2 / Fold change vs veh, SLMO2 / RFU, ABCC4 / Fold change vs veh, ABCC4 / RFU, LOC101060439 /// RAP1B / Fold change vs veh, LOC101060439 /// RAP1B / RFU, RFX7 / Fold change vs veh, RFX7 / RFU, GTPBP10 / Fold change vs veh, GTPBP10 / RFU, CNEP1R1 / Fold change vs veh, CNEP1R1 / RFU, BIVM-ERCC5 /// ERCC5 / Fold change vs veh, BIVM-ERCC5 /// ERCC5 / RFU, ILF3 / Fold change vs veh, ILF3 / RFU 11762660_at / Fold change /veh 11762660_at / RFU VCAN (11757783_s_at) / Fold change /veh VCAN (11757783_s_at) / RFU DDX43 (11728927_at) / Fold change /veh DDX43 (11728927_at) / RFU KRT8 (11758188_x_at) / Fold change /veh KRT8 (11758188_x_at) / RFU NKD1 (11759106_at) / Fold change /veh NKD1 (11759106_at) / RFU SRD5A1 (11742802_a_at) / Fold change /veh SRD5A1 (11742802_a_at) / RFU TPSAB1 /// TPSB2 (11721975_s_at) / Fold change /veh TPSAB1 /// TPSB2 (11721975_s_at) / RFU GSTM3 (11746129_a_at) / Fold change /veh GSTM3 (11746129_a_at) / RFU IL23R (11737362_x_at) / Fold change /veh IL23R (11737362_x_at) / RFU TMEM51 (11727254_a_at) / Fold change /veh TMEM51 (11727254_a_at) / RFU PIWIL2 (11732686_x_at) / Fold change /veh PIWIL2 (11732686_x_at) / RFU ORM1 (11744905_x_at) / Fold change /veh ORM1 (11744905_x_at) / RFU CCDC152 (11743942_at) / Fold change /veh CCDC152 (11743942_at) / RFU ECM1 (11717891_a_at) / Fold change /veh ECM1 (11717891_a_at) / RFU IL23R (11748794_a_at) / Fold change /veh IL23R (11748794_a_at) / RFU TNFAIP8L3 (11732012_x_at) / Fold change /veh TNFAIP8L3 (11732012_x_at) / RFU MBOAT4 (11741988_at) / Fold change /veh MBOAT4 (11741988_at) / RFU 11764193_at / Fold change /veh 11764193_at / RFU TMEM53 (11763286_at) / Fold change /veh TMEM53 (11763286_at) / RFU MAGEB2 (11727129_at) / Fold change /veh MAGEB2 (11727129_at) / RFU TMEM200A (11744735_a_at) / Fold change /veh TMEM200A (11744735_a_at) / RFU CCDC152 (11751479_a_at) / Fold change /veh CCDC152 (11751479_a_at) / RFU FAM211A (11726209_a_at) / Fold change /veh FAM211A (11726209_a_at) / RFU RGS16 (11746705_a_at) / Fold change /veh RGS16 (11746705_a_at) / RFU VCAN (11755009_s_at) / Fold change /veh VCAN (11755009_s_at) / RFU RHOB (11743442_s_at) / Fold change /veh RHOB (11743442_s_at) / RFU RGS16 (11720943_a_at) / Fold change /veh RGS16 (11720943_a_at) / RFU RGS16 (11720944_at) / Fold change /veh RGS16 (11720944_at) / RFU, VPS4B / Fold change vs veh, VPS4B / RFU, CREB1 / Fold change vs veh, CREB1 / RFU, DNAJC13 / Fold change vs veh, DNAJC13 / RFU, GNAQ / Fold change vs veh, GNAQ / RFU, CDK5R1 / Fold change vs veh, CDK5R1 / RFU, ZRANB3 / Fold change vs veh, ZRANB3 / RFU, CUL4A / Fold change vs veh, CUL4A / RFU, CCNY / Fold change vs veh, CCNY / RFU, UFL1 / Fold change vs veh, UFL1 / RFU, COG3 / Fold change vs veh, COG3 / RFU, DIAPH2 / Fold change vs veh, DIAPH2 / RFU, SKA2 / Fold change vs veh, SKA2 / RFU, AFF3 / Fold change vs veh, AFF3 / RFU, LMF1 / Fold change vs veh, LMF1 / RFU, IPO11 / Fold change vs veh, IPO11 / RFU, DFFB / Fold change vs veh, DFFB / RFU, FOXP1 / Fold change vs veh, FOXP1 / RFU, CARD8 / Fold change vs veh, CARD8 / RFU, STRN3 / Fold change vs veh, STRN3 / RFU, ADK / Fold change vs veh, ADK / RFU, RASSF2 / Fold change vs veh, RASSF2 / RFU, WIPF1 / Fold change vs veh, WIPF1 / RFU, LARP1B / Fold change vs veh, LARP1B / RFU, RASA1 / Fold change vs veh, RASA1 / RFU, RB1 / Fold change vs veh, RB1 / RFU, PPFIA1 / Fold change vs veh, PPFIA1 / RFU, MAT2A / Fold change vs veh, MAT2A / RFU, CCT5 / Fold change vs veh, CCT5 / RFU, WDR92 / Fold change vs veh, WDR92 / RFU, CUX1 / Fold change vs veh, CUX1 / RFU, TTC7A / Fold change vs veh, TTC7A / RFU, TMEM135 / Fold change vs veh, TMEM135 / RFU, DEPTOR / Fold change vs veh, DEPTOR / RFU, CPM / Fold change vs veh, CPM / RFU, DNAJB6 / Fold change vs veh, DNAJB6 / RFU, CACNA2D3 / Fold change vs veh, CACNA2D3 / RFU, DTX4 / Fold change vs veh, DTX4 / RFU, TFCP2 / Fold change vs veh, TFCP2 / RFU, GMCL1 /// GMCL1P1 / Fold change vs veh, GMCL1 /// GMCL1P1 / RFU, AEBP2 / Fold change vs veh, AEBP2 / RFU, SNHG1 /// SNORD22 /// SNORD25 /// SNORD26 /// SNORD27 /// SNORD28 /// SNORD29 /// SNORD31 / Fold change vs veh, SNHG1 /// SNORD22 /// SNORD25 /// SNORD26 /// SNORD27 /// SNORD28 /// SNORD29 /// SNORD31 / Fold change (Aza/veh), C12orf56 (ProbeSet 11735607_a_at) / Fold change (ACY-1035/veh), C12orf56 (ProbeSet 11735607_a_at) / Fold change (Aza/veh), FGFR1OP (ProbeSet 11751329_s_at) / Fold change (ACY-1035/veh), FGFR1OP (ProbeSet 11751329_s_at) / Fold change (Aza/veh), VPS36 (ProbeSet 11739960_a_at) / Fold change (ACY-1035/veh), VPS36 (ProbeSet 11739960_a_at) / RFU SYPL1 (11715823_x_at) / Fold change /veh SYPL1 (11715823_x_at) / RFU IGFBP7 (11715501_s_at) / Fold change /veh IGFBP7 (11715501_s_at) / RFU REEP3 (11722064_at) / Fold change /veh REEP3 (11722064_at) / RFU IGLL1 (11728026_x_at) / Fold change /veh IGLL1 (11728026_x_at): dose or concentration left out as unconfirmed
Conditions: MV-4-11 cells, 48 hours

Structure (SMILES): Nc1ccc(-c2cccs2)cc1NC(=O)c1ccc2c(c1)cc(C1CC1)n2CCN1CCOCC1 [ACY-1035]
- RFU PLEKHG5 (11743358_a_at): 36.52 RFU
